According to the NIST ThermoML archive (doi:10.1021/acs.jced.9b00442):

Conditions: 100 kPa, Liquid; for electrical conductivity: Frequency=0.0006 MHz, Alternating current cell with electrodes; for viscosity: Concentric cylinders viscometry; for mass density: Vibrating tube method

CC[N+](CCO)(CCO)CCO.O=S(=O)([N-]S(=O)(=O)C(F)(F)F)C(F)(F)F
Conditions | electrical conductivity [S/m] | mass density [kg/m3] | viscosity [mPa·s]
283.15 K | 0.007 | – | –
288.15 K | 0.011 | 1538.5 | 2041.7
289.15 K | – | 1537.6 | –
290.15 K | – | 1536.7 | –
291.15 K | – | 1535.9 | –
292.15 K | – | 1535 | –
293.15 K | 0.018 | 1534.1 | 1275.4
294.15 K | – | 1533.2 | –
295.15 K | – | 1532.4 | –
296.15 K | – | 1531.5 | –
297.15 K | – | 1530.6 | –
298.15 K | 0.026 | 1529.7 | 840.6
299.16 K | – | 1528.9 | –
300.16 K | – | 1528 | –
301.15 K | – | 1527.1 | –
302.15 K | – | 1526.2 | –
303.15 K | 0.037 | 1525.4 | 569.4
304.15 K | – | 1524.5 | –
305.15 K | – | 1523.6 | –
306.15 K | – | 1522.7 | –
307.15 K | – | 1521.9 | –
308.15 K | 0.052 | 1521 | 397.8
309.15 K | – | 1520.1 | –
310.15 K | – | 1519.2 | –
311.15 K | – | 1518.4 | –
312.15 K | – | 1517.5 | –
313.15 K | 0.07 | 1516.6 | 280.3
314.15 K | – | 1515.7 | –
315.15 K | – | 1514.9 | –
316.15 K | – | 1514 | –
317.15 K | – | 1513.1 | –
318.15 K | 0.092 | 1512.2 | 210.5
319.15 K | – | 1511.3 | –
320.15 K | – | 1510.5 | –
321.15 K | – | 1509.6 | –
322.15 K | – | 1508.7 | –
323.15 K | 0.118 | 1507.8 | 158.6
324.15 K | – | 1507 | –
325.15 K | – | 1506.1 | –
326.15 K | – | 1505.2 | –
327.15 K | – | 1504.4 | –
328.15 K | – | 1503.5 | 122
329.15 K | – | 1502.6 | –
330.15 K | – | 1501.8 | –
331.15 K | – | 1500.9 | –
332.15 K | – | 1500 | –
333.15 K | – | 1499.2 | 94.7
334.15 K | – | 1498.3 | –
335.16 K | – | 1497.4 | –
336.15 K | – | 1496.6 | –
337.15 K | – | 1495.7 | –
338.15 K | – | 1494.9 | 76.1
339.15 K | – | 1494 | –
340.15 K | – | 1493.2 | –
341.15 K | – | 1492.3 | –
342.15 K | – | 1491.4 | –
343.15 K | – | 1490.6 | 61.6
344.15 K | – | 1489.7 | –
345.15 K | – | 1488.9 | –
346.15 K | – | 1488 | –
347.15 K | – | 1487.2 | –
348.15 K | – | 1486.3 | 50.6
349.15 K | – | 1485.5 | –
350.15 K | – | 1484.6 | –
351.15 K | – | 1483.8 | –
352.15 K | – | 1483 | –
353.15 K | – | 1482.1 | 41.9
354.15 K | – | 1481.3 | –
355.15 K | – | 1480.4 | –
356.15 K | – | 1479.6 | –
357.15 K | – | 1478.7 | –
358.15 K | – | 1477.9 | 35.3
359.15 K | – | 1477.1 | –
360.15 K | – | 1476.2 | –
361.15 K | – | 1475.4 | –
362.16 K | – | 1474.6 | –
363.15 K | – | 1473.7 | 30

C[N+](CCO)(CCO)CCO.O=S(=O)([N-]S(=O)(=O)C(F)(F)F)C(F)(F)F
Conditions | electrical conductivity [S/m] | mass density [kg/m3] | viscosity [mPa·s]
283.15 K | 0.01 | – | –
288.15 K | 0.017 | – | 1283.1
289.15 K | – | 1574.9 | –
290.15 K | – | 1574 | –
291.15 K | – | 1573.1 | –
292.15 K | – | 1572.2 | –
293.15 K | 0.025 | 1571.3 | 838.5
294.15 K | – | 1570.4 | –
295.15 K | – | 1569.5 | –
296.15 K | – | 1568.6 | –
297.15 K | – | 1567.7 | –
298.15 K | 0.036 | 1566.8 | 568.8
299.16 K | – | 1565.9 | –
300.16 K | – | 1565 | –
301.15 K | – | 1564.1 | –
302.15 K | – | 1563.2 | –
303.15 K | 0.05 | 1562.3 | 397.8
304.15 K | – | 1561.4 | –
305.15 K | – | 1560.5 | –
306.15 K | – | 1559.6 | –
307.15 K | – | 1558.7 | –
308.15 K | 0.068 | 1557.8 | 285.9
309.15 K | – | 1556.9 | –
310.15 K | – | 1556 | –
311.15 K | – | 1555.1 | –
312.15 K | – | 1554.2 | –
313.15 K | 0.09 | 1553.3 | 211.1
314.15 K | – | 1552.4 | –
315.15 K | – | 1551.5 | –
316.15 K | – | 1550.6 | –
317.15 K | – | 1549.7 | –
318.15 K | 0.117 | 1548.8 | 158.7
319.15 K | – | 1547.9 | –
320.15 K | – | 1547 | –
321.15 K | – | 1546.1 | –
322.15 K | – | 1545.2 | –
323.15 K | 0.149 | 1544.3 | 122
324.15 K | – | 1543.4 | –
325.15 K | – | 1542.5 | –
326.15 K | – | 1541.6 | –
327.15 K | – | 1540.7 | –
328.15 K | – | 1539.8 | 95.6
329.15 K | – | 1538.9 | –
330.15 K | – | 1538.1 | –
331.15 K | – | 1537.2 | –
332.15 K | – | 1536.3 | –
333.15 K | – | 1535.4 | 76.5
334.15 K | – | 1534.5 | –
335.16 K | – | 1533.6 | –
336.15 K | – | 1532.8 | –
337.15 K | – | 1531.9 | –
338.15 K | – | 1531 | 61.7
339.15 K | – | 1530.1 | –
340.15 K | – | 1529.2 | –
341.15 K | – | 1528.4 | –
342.15 K | – | 1527.5 | –
343.15 K | – | 1526.6 | 50.6
344.15 K | – | 1525.8 | –
345.15 K | – | 1524.9 | –
346.15 K | – | 1524 | –
347.15 K | – | 1523.1 | –
348.15 K | – | 1522.3 | 42.1
349.15 K | – | 1521.4 | –
350.15 K | – | 1520.5 | –
351.15 K | – | 1519.7 | –
352.15 K | – | 1518.8 | –
353.15 K | – | 1518 | 35.6
354.15 K | – | 1517.1 | –
355.15 K | – | 1516.2 | –
356.15 K | – | 1515.4 | –
357.15 K | – | 1514.5 | –
358.15 K | – | 1513.6 | 30.1
359.15 K | – | 1512.8 | –
360.15 K | – | 1511.9 | –
361.15 K | – | 1511.1 | –
362.16 K | – | 1510.2 | –
363.15 K | – | 1509.3 | 25.8
